# In patent US10167262B2, “Herbicidal substituted 3-arylpyrazoles” (FMC CORPORATION, priority 2014, dated 2019):
# Experiments:
# Format in all cases: in vivo
# [1] = test system: winter wheat (Triticum aestivum); experiment: Test C pre-/postemergence greenhouse test, plant response rating 0-100; details: Postemergence; for Plant response rating, Wheat: scale 0 to 100
# Outline: (§1)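 Formulated in solvent with surfactant, test chemicals were sprayed on seeded loam/sand pots and, concurrently, on young plants 2–18 cm tall. Evaluation: visual, versus controls, day 13–15.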
# [2] = test system: yellow nutsedge (Cyperus esculentus); experiment: as above; details: Postemergence; for Plant response rating, Nutsedge, Yellow: scale 0 to 100
# Outline: as §1
# [3] = test system: blackgrass (Alopecurus myosuroides); experiment: as above; details: Postemergence; for Plant response rating, Blackgrass: scale 0 to 100;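 as to all read-outs here: 0 is no effect and 100 is complete control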
# Outline: as §1
# [4] = test system: johnsongrass (Sorghum halepense); experiment: as above; details: Postemergence; for Plant response rating, Johnsongrass: scale 0 to 100
# Outline: as §1
# [5] = test system: giant foxtail (Setaria faberii); experiment: as above; details: Postemergence; for Plant response rating, Foxtail, Giant: scale 0 to 100
# Outline: as §1
# [6] = test system: pigweed (Amaranthus retroflexus); experiment: as above; details: Postemergence; for Plant response rating, Pigweed: scale 0 to 100
# Outline: as §1
# [7] = test system: lambsquarters (Chenopodium album); experiment: as above; details: Postemergence; for Plant response rating, Lambsquarters: scale 0 to 100
# Outline: as §1
# [8] = test system: large (Lg) crabgrass (Digitaria sanguinalis); experiment: as above; details: Postemergence; for Plant response rating, Crabgrass, Large: scale 0 to 100
# Outline: as §1
# soybean (Glycine max) = experiment: as above; details: Postemergence; for Plant response rating, Soybean: scale 0 to 100
# Outline: as §1
# corn (Zea mays) = experiment: as above; details: Postemergence; for Plant response rating, Corn: scale 0 to 100
# Outline: as §1
# [9] = test system: chickweed (common chickweed, Stellaria media); experiment: Test C postemergence greenhouse test, plant response rating 0-100; details: for Plant response rating, Chickweed: scale 0 to 100
# Outline: (§2)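 Each weed species was grown in potting medium and sprayed after emergence, when 2–18 cm tall. Ratings, made by eye relative to control pots, were recorded 13–15 days later using a scale where 0 is no effect.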
# kochia (Kochia scoparia) = experiment: as above; details: for Plant response rating, Kochia: scale 0 to 100
# Outline: as §2
# wild oat (Avena fatua) = experiment: as above; details: for Plant response rating, Oat, Wild: scale 0 to 100
# Outline: as §2
smiles,measurement,setting,value
Cn1cc(C(=O)c2ccccc2)c(-c2cc(Br)cc(Br)c2)n1 [Compound 53],"Plant response rating (0 to 100), Wheat",[1]; 62 g ai/ha,0
same,"Plant response rating (0 to 100), Wheat",[1]; 125 g ai/ha,0
same,"Plant response rating, Wheat",[1]; 250 g ai/ha,0
same,"Plant response rating, Wheat",[1]; 500 g ai/ha,0
same,"Plant response rating (0 to 100), Nutsedge, Yellow",[2]; 62 g ai/ha,0
same,"Plant response rating (0 to 100), Nutsedge, Yellow",[2]; 125 g ai/ha,0
same,"Plant response rating, Nutsedge, Yellow",[2]; 250 g ai/ha,0
same,"Plant response rating, Nutsedge, Yellow",[2]; 500 g ai/ha,0
same,"Plant response rating (0 to 100), Blackgrass",[3]; 62 g ai/ha,0
same,"Plant response rating (0 to 100), Blackgrass",[3]; 125 g ai/ha,0
same,"Plant response rating, Blackgrass",[3]; 250 g ai/ha,0
same,"Plant response rating, Blackgrass",[3]; 500 g ai/ha,0
same,"Plant response rating (0 to 100), Johnsongrass",[4]; 62 g ai/ha,0
same,"Plant response rating (0 to 100), Johnsongrass",[4]; 125 g ai/ha,0
same,"Plant response rating, Johnsongrass",[4]; 250 g ai/ha,0
same,"Plant response rating, Johnsongrass",[4]; 500 g ai/ha,0
same,"Plant response rating (0 to 100), Foxtail, Giant",[5]; 62 g ai/ha,0
same,"Plant response rating (0 to 100), Foxtail, Giant",[5]; 125 g ai/ha,0
same,"Plant response rating, Foxtail, Giant",[5]; 250 g ai/ha,10
same,"Plant response rating, Foxtail, Giant",[5]; 500 g ai/ha,10
same,"Plant response rating (0 to 100), Pigweed",[6]; 62 g ai/ha,85
same,"Plant response rating (0 to 100), Pigweed",[6]; 125 g ai/ha,85
same,"Plant response rating, Pigweed",[6]; 250 g ai/ha,90
same,"Plant response rating, Pigweed",[6]; 500 g ai/ha,90
same,"Plant response rating (0 to 100), Lambsquarters",[7]; 125 g ai/ha,30
same,"Plant response rating, Lambsquarters",[7]; 250 g ai/ha,35
same,"Plant response rating, Lambsquarters",[7]; 500 g ai/ha,100
same,"Plant response rating (0 to 100), Crabgrass, Large",[8]; 62 g ai/ha,0
same,"Plant response rating (0 to 100), Crabgrass, Large",[8]; 125 g ai/ha,0
same,"Plant response rating, Crabgrass, Large",[8]; 250 g ai/ha,0
same,"Plant response rating, Crabgrass, Large",[8]; 500 g ai/ha,0
same,"Plant response rating (0 to 100), Soybean",soybean (Glycine max); 62 g ai/ha,0
same,"Plant response rating (0 to 100), Soybean",soybean (Glycine max); 125 g ai/ha,0
same,"Plant response rating, Soybean",soybean (Glycine max); 250 g ai/ha,0
same,"Plant response rating, Soybean",soybean (Glycine max); 500 g ai/ha,5
same,"Plant response rating (0 to 100), Corn",corn (Zea mays); 62 g ai/ha,5
same,"Plant response rating (0 to 100), Corn",corn (Zea mays); 125 g ai/ha,5
same,"Plant response rating, Corn",corn (Zea mays); 250 g ai/ha,5
same,"Plant response rating, Corn",corn (Zea mays); 500 g ai/ha,5
same,"Plant response rating (0 to 100), Chickweed",[9]; 62 g ai/ha,50
same,"Plant response rating (0 to 100), Chickweed",[9]; 125 g ai/ha,50
same,"Plant response rating, Chickweed",[9]; 250 g ai/ha,100
same,"Plant response rating, Chickweed",[9]; 500 g ai/ha,100
same,"Plant response rating (0 to 100), Kochia",kochia (Kochia scoparia); 62 g ai/ha,25
same,"Plant response rating (0 to 100), Kochia",kochia (Kochia scoparia); 125 g ai/ha,45
same,"Plant response rating, Kochia",kochia (Kochia scoparia); 250 g ai/ha,60
same,"Plant response rating, Kochia",kochia (Kochia scoparia); 500 g ai/ha,60
same,"Plant response rating (0 to 100), Oat, Wild",wild oat (Avena fatua); 62 g ai/ha,0
same,"Plant response rating (0 to 100), Oat, Wild",wild oat (Avena fatua); 125 g ai/ha,0
same,"Plant response rating, Oat, Wild",wild oat (Avena fatua); 250 g ai/ha,0
same,"Plant response rating, Oat, Wild",wild oat (Avena fatua); 500 g ai/ha,0
Fc1ccccc1NN=C(c1ccccc1)c1c[nH]nc1-c1cc(Cl)cc(Cl)c1 [Compound 57],"Plant response rating (0 to 100), Wheat",[1]; 62 g ai/ha,0
same,"Plant response rating (0 to 100), Wheat",[1]; 125 g ai/ha,0
same,"Plant response rating, Wheat",[1]; 250 g ai/ha,0
same,"Plant response rating (0 to 100), Nutsedge, Yellow",[2]; 62 g ai/ha,0
same,"Plant response rating (0 to 100), Nutsedge, Yellow",[2]; 125 g ai/ha,0
same,"Plant response rating, Nutsedge, Yellow",[2]; 250 g ai/ha,5
same,"Plant response rating (0 to 100), Blackgrass",[3]; 31 g ai/ha,0
same,"Plant response rating (0 to 100), Blackgrass",[3]; 62 g ai/ha,0
same,"Plant response rating (0 to 100), Blackgrass",[3]; 125 g ai/ha,0
same,"Plant response rating, Blackgrass",[3]; 250 g ai/ha,0
same,"Plant response rating (0 to 100), Johnsongrass",[4]; 62 g ai/ha,0
same,"Plant response rating (0 to 100), Johnsongrass",[4]; 125 g ai/ha,0
same,"Plant response rating, Johnsongrass",[4]; 250 g ai/ha,0
same,"Plant response rating (0 to 100), Foxtail, Giant",[5]; 31 g ai/ha,0
same,"Plant response rating (0 to 100), Foxtail, Giant",[5]; 62 g ai/ha,0
same,"Plant response rating (0 to 100), Foxtail, Giant",[5]; 125 g ai/ha,0
same,"Plant response rating, Foxtail, Giant",[5]; 250 g ai/ha,5
same,"Plant response rating (0 to 100), Pigweed",[6]; 62 g ai/ha,70
same,"Plant response rating, Pigweed",[6]; 250 g ai/ha,75
same,"Plant response rating (0 to 100), Lambsquarters",[7]; 62 g ai/ha,60
same,"Plant response rating (0 to 100), Lambsquarters",[7]; 125 g ai/ha,100
same,"Plant response rating (0 to 100), Crabgrass, Large",[8]; 31 g ai/ha,0
same,"Plant response rating (0 to 100), Crabgrass, Large",[8]; 62 g ai/ha,0
same,"Plant response rating (0 to 100), Crabgrass, Large",[8]; 125 g ai/ha,0
same,"Plant response rating, Crabgrass, Large",[8]; 250 g ai/ha,5
same,"Plant response rating (0 to 100), Soybean",soybean (Glycine max); 62 g ai/ha,0
same,"Plant response rating (0 to 100), Soybean",soybean (Glycine max); 125 g ai/ha,0
same,"Plant response rating, Soybean",soybean (Glycine max); 250 g ai/ha,0
same,"Plant response rating (0 to 100), Corn",corn (Zea mays); 31 g ai/ha,0
same,"Plant response rating (0 to 100), Corn",corn (Zea mays); 62 g ai/ha,0
same,"Plant response rating (0 to 100), Corn",corn (Zea mays); 125 g ai/ha,0
same,"Plant response rating, Corn",corn (Zea mays); 250 g ai/ha,0
same,"Plant response rating (0 to 100), Chickweed",[9]; 31 g ai/ha,60
same,"Plant response rating (0 to 100), Chickweed",[9]; 62 g ai/ha,100
same,"Plant response rating (0 to 100), Chickweed",[9]; 125 g ai/ha,100
same,"Plant response rating, Chickweed",[9]; 250 g ai/ha,100
same,"Plant response rating (0 to 100), Kochia",kochia (Kochia scoparia); 62 g ai/ha,65
same,"Plant response rating (0 to 100), Kochia",kochia (Kochia scoparia); 125 g ai/ha,65
same,"Plant response rating, Kochia",kochia (Kochia scoparia); 250 g ai/ha,80
same,"Plant response rating (0 to 100), Oat, Wild",wild oat (Avena fatua); 62 g ai/ha,0
same,"Plant response rating (0 to 100), Oat, Wild",wild oat (Avena fatua); 125 g ai/ha,0
same,"Plant response rating, Oat, Wild",wild oat (Avena fatua); 250 g ai/ha,0
